Experimental data from publication PMC6416395, “B1.12: a novel peptide interacting with the extracellular loop of the EBV oncoprotein LMP1” (Scientific Reports, 2019).
“Also recorded” adds a separate entry of the source. Residues, ends and D or L forms follow the SMILES beside them.

How the values were obtained:
[1] = test system: B1 peptide (first extracellular loop of LMP1); experiment: NMR titration of B1/B1.12 interaction; type: binding, Epstein-Barr virus (EBV); conditions: H2O/D2O (90:10), 500 MHz
Procedure: The NMR experiments samples were prepared in 500 μL of H2O/D2O (90:10); using 1 mM of B1 peptide and 21 mM of B1.12 peptide. Titration experiment was also performed with varying the B1:B1.12 proportions (1:1; 3:1; 5:1; 7:1; 9:1). The NMR experiments were recorded on a Bruker spectrometer 500 MHz equipped with a TCI cryoprobe. Acquisition was performed with water suppression with excitation sculpting pulse sequence.

[2] = test system: B1 peptide (first extracellular loop of LMP1); experiment: ITC of B1/B1.12 interaction; type: binding, Epstein-Barr virus (EBV); conditions: 30 °C, NaHCO3 buffer 0.1 M pH 5.7
Procedure: For ITC, analysis was performed at 30 °C using an isothermal titration calorimeter (VP-ITC, LLC Microcal Inc., Northampton, MA, USA). Peptides were suspended in NaHCO3 buffer (0.1 M, pH 5.7, after 2 hours of sample equilibration) and the reference cell was filled with the same buffer. B1 peptide (0.2 mM) was placed into 250 μL syringe and 1200 μL of B1.12 peptide (0.01 mM) was placed in the titration cell. The peptide solution was injected into the stirred sample cell containing B1.12 peptide in >20 injections (2 μL per injection) by a computer-controlled pump. The injection lasted 10 seconds with an interval of 120 seconds between successive injections. Heat released with each injection was measured (Differential Potential in µCal/sec) by the calorimeter in dynamic correction mode. Control experiments were performed by tittering the B1 peptide into the buffer solution at the same pH and concentrations with and without the B1 peptide, in order to discriminate the interaction process against the dilution of B1 and its possible self-association, respectively.

HeLa/LMP1 cells = experiment: Competitive inhibition of phage B1.12 binding to HeLa/LMP1 cells; type: cell-based; conditions: peptide 100 µM, 37 °C 1 hour, triplicate mean
Procedure: Binding of the B1.12 peptide to its target B1 and to HeLa/LMP1 cells was evaluated by a competitive binding assay. For competition on B1 as a target, the B1.12 peptide or the unrelated control peptide were incubated at concentrations of 1, 5, 10, 25, 50 and 100 µM with B1 peptide (100 µl of a solution of 1 mg/mL in NaHCO3) at room temperature for 1 hour. Then the B1.12 phage (2 × 10^10 pfu) was added to each well and incubated for 1 hour. After washing, the bound phage was detected by the anti-M13 antibody as described previously. For the competition test on HeLa cells expressing or not the viral oncoprotein LMP1, cells were seeded into 96-well plates (10^4 cells/well), washed twice in PBS, and fixed with 4% paraformaldehyde for 30 minutes at room temperature. Synthetic peptides at concentrations of 50, 75, 100 and 200 µM were incubated with the cells at 37 °C for 1 hour and the experiment was carried out as described above. All experiments were done in triplicate and the mean values of OD were used to calculate the rate of competitive inhibition according to the following formula: inhibition ratio = (OD control − OD phage)/OD control × 100, where OD control and OD phage represent the OD450 nm values of phage binding on cells incubated with PBS and with the peptide, respectively.

C666.1 cells [3] = experiment: MTT cell viability, C666.1; type: cell-based; conditions: increasing concentration to 200 µM, 48 h
Procedure: (§1) Three cell lines were used: C666-1 which is a native EBV-infected NPC-derived cell line constitutively expressing LMP1, HeLa cells transfected with native vector (Gpt) or harboring the cDNA encoding LMP1, and HT-29 which is a human colon cancer cell line All cells were maintained in RPMI medium 1640 supplemented with 5% (V/V) FBS (Gibco), 4 µg/mL Gentamycine and 2 mM L-glutamine at 37 °C in a humidified atmosphere of 5% CO2. These cell lines were kindly provided by Pr P. Busson (IGR-France).
Cells were plated into 96-well plates until 80% confluent and then treated with different concentrations of B1.12 peptide (100, 200, 300 and 400 µM). After 48 hours of incubation, 20 μL MTT (5 mg/mL) were added to each well. After 4 hours, 100 μL dimethyl sulfoxide (DMSO) was added to each well, and absorbance was measured at […] using a Varioskan™ Flash Multimode Reader (Thermofisher Scientific). The percentage of cell viability was calculated using this formula:(OD590 nm of treated cells/OD590 nm of untreated cells) × 100.

C666.1 cells [4] = experiment: Cell cycle analysis, C666.1; type: cell-based; conditions: C666.1, 50 µM peptide
Procedure: (§2) Cell cycle analysis of C666.1 and HT29 cells was performed using the FXcycleTm PIi/RNnase staining solution (Invitrogen). Briefly, cells (4 × 10^5) were seeded and grown for 24 hours, and then incubated with serum-free RPMI for another 24 hours (starvation) to decrease cell constitutive signaling. After starvation, cells were incubated or not with 50 µM B1.12 peptide (C666.1 and HT29 cells) or control peptide (C666.1 cells) for 48 hours. Following incubation, cells were washed with PBS, trypsinized and centrifuged at 1200 rpm for 5 minutes. The cell pellet was then washed twice with PBS, and cells were fixed with 5 mL of ethanol 70% for 24 hours at 4 °C. Aliquots of 2 × 10^5 ethanol-fixed cells were then centrifuged for 5 minutes at 450 g, washed with PBS, and then resuspended in Propidium Iodide Reagent and incubated for 30 minutes at room temperature, shielded from light. The data were collected and analyzed by an Attune NxT Flow Cytometer (Thermofisher).

HT29 cells = experiment: Cell cycle analysis, HT29; type: cell-based, human; conditions: HT29, 50 µM peptide
Procedure: as §1
as §2, with “Aliquots of 2 × 10^5 ethanol-fixed cells were then centrifuged for 5 minutes at 450 g, washed with PBS, and then resuspended in Propidium Iodide Reagent and incubated for 30 minutes at room temperature, shielded from light.” left out

A20 (TNFAIP3) = experiment: RT-qPCR A20 expression in C666.1 cells; type: cell-based; conditions: B1.12-treated versus untreated C666.1, RT-qPCR normalised to GAPDH, n = 3 biological replicates
Text: Total RNA from C666.1 cells treated or not with B1.12 and control peptides was extracted using TRIzol reagent. cDNA was synthetized using the reverse transcription kit (Invitrogen), and served as a template for detecting A20 gene expression by Real-time quantitative PCR using SYBR Premix Ex Taq (Tli RNase H Plus, Takara) and using CFX96 (Biorad). The housekeeping gene GAPDH was used as an internal control to normalize the expression levels of the gene. The primers used for the amplification of the A20 gene are as follows: forward: 5′-[…]-3′, and reverse: 5′-GGCGAAATTGGAACCTGA TTCCAAACTT-3′. Relative quantification of mRNA expression was performed by the comparative 2−ΔΔct method to calculate the difference between amplifications of A20 and GAPDH. […]

[5] = propidium iodide FACS, 24 h (48 h elsewhere in the source)

For `CC(C)C[C@H](NC(=O)[C@H](CC(=O)O)NC(=O)[C@H](CC(C)C)NC(=O)[C@@H]1CCCN1C(=O)[C@H](CS)NC(=O)[C@H](C)N)C(=O)N[C@@H](CCCNC(=N)N)C(=O)N[C@@H](CO)C(=O)N1CCC[C@H]1C(=O)N[C@@H](CS)C(=O)NCC(N)=O` [B1.12] (H-ACPLDLRSPCG-NH2; N-terminus and C-terminus assumed), the “binding to target B1 (NMR)” value ([1]; 1 mM B1, 21 mM B1.12) was “bound specifically to its target B1”, the “B1 residues showing chemical shift variation” value ([1]; B1:B1.12 titration 1:1 to 9:1) was “Met2, Trp5 and Thr6; also recorded: Met^2, Trp^5 and Thr^6” and the “number of injections after which exothermic binding reaction ceases” value ([2]; 2 μL injections of B1 0.2 mM into B1.12 0.01 mM) was “nineteen”. The “binding to target B1 (ITC)” value ([2]; B1 0.2 mM injected into B1.12 0.01 mM) was “ITC profile confirmed the binding of the B1.12 peptide to its target B1 peptide”, the inhibition ratio (HeLa/LMP1 cells) was 45% and the “cell viability (in words)” value (C666.1 cells [3]) was “gradually decreases with increasing peptide concentration”. For the same compound, the “cell cycle progression versus untreated (in words)” value (C666.1 cells [4]) was “inducing G0/G1 cell cycle arrest”, the “cells in G0/G1 phase” value (C666.1 cells [4]; [5]) was 73% and the “cell cycle phases versus untreated (in words)” value (HT29 cells) was “the cell cycle phases still unchanged”. For the same compound, the “cells in G0/G1 phase” value (HT29 cells; [5]) was 78.3% and the A20 expression level (A20 (TNFAIP3)) was “the expression of A20 decreased compared to untreated cells; also recorded: the A20 level decreased in the C666.1 cells after B1.12 treatment”.
